Reference: patent US8022225B2, “Triazole derivative” (Taisho Pharmaceutical Co., Ltd, priority 2004, dated 2011)

Tests used:
[1] = biological target: T1, human Edg-1(S1P1) (Homo sapiens, UniProt P21453); test: Cell system binding test: inhibition of [3H]-S1P binding to Edg-1(S1P1) gene transferred HEK-293 cells; conditions: 10 μM compound, [3H]-S1P 10 nM, read-out: Cell system binding test % inhibition (10 μM)
T1 construct: expressed in transfected cells; host or cells: HEK-293
Protocol: Cells (1×10^5 cells/well) obtained as described above were seeded in poly-L-lysine-coated 96-well plates (Corning Incorporated), and then incubated in a 5% carbon dioxide gas incubator for 12 hours at 37° C. with the use of an MEM medium (Invitrogen Corporation) containing 100 U/mL of penicillin, 100 μg/mL of streptomycin, a 1% MEM nonessential amino acid solution, and 10% FCS. […] After the cells were washed twice with the buffer, they were solubilized with 100 μL of Opti Phase Supermix (produced by Perkin-Elmer), and measured for radioactivity by means of Micro Beta (produced by Perkin-Elmer).
Inhibition rate(%)=[1−(A−C)/(B−C)]×100

[2] = biological target: T1, human Edg-1(S1P1); test: Membrane system binding test: inhibition of [33P]-S1P binding to the membrane fraction of Edg-1(S1P1) gene transferred HEK-293 cells; conditions: 10 μM compound; [33P]-S1P 0.1 nM; membrane fraction of Edg-1(S1P1) gene transferred HEK-293 cells; read-out: Membrane system binding test % inhibition (10 μM)
Protocol: The membrane fraction was obtained by treating the cells with a solubilizing buffer (1 mM Tris/HCl, pH 7.2) for 10 minutes on ice, centrifuging the system (1000×g, 5 min) to remove insoluble fractions, and then centrifuging the system (40000×g, 30 min, 4° C.). The resulting membrane fraction was dissolved in a binding buffer (20 mM Tris-HCl, pH 7.4, 100 mM NaCl, 15 mM NaF, 2 mM deoxypyridoxine, 4 mg/mL fatty acid-free BSA), and then [^33P]-S1P (produced by ARC, end concentration 0.1 nM) and a DMSO solution of the test compound (end concentration of the compound: 10^−5 M, end concentration of DMSO: 0.1%) were added, followed by stirring the mixture and subsequently treating it for 1 hour at 30° C. Using a harvester, the membrane fraction was harvested onto unifilter-96GF/C filter (produced by Perkin-Elmer). Then, the filter with the membrane fraction was washed 4 times with the binding buffer, and the filter was dried. To the filter, 25 μL Microscint 0 (produced by Perkin-Elmer) was added, and the assay system was measured for radioactivity by means of Top Count NXT (Packard). Based on the radioactivity, the amount (A) of binding of [^33P]-S1P to the membrane fraction upon addition of the compound was calculated.
The same procedure was performed in the absence of the test compound, and the amount (B) of binding of [^33P]-S1P was calculated. Moreover, the same procedure was performed in the absence of the test compound with the use of HEK-293 cells, to which the Edg-1(S1P1) gene had not been transferred, and the background amount (C) of binding of [^33P]-S1P was calculated.
The Edg-1(S1P1) binding inhibition rate of the compound, calculated from the following equation, is shown in […]

T1 sequence (P21453 whole entry): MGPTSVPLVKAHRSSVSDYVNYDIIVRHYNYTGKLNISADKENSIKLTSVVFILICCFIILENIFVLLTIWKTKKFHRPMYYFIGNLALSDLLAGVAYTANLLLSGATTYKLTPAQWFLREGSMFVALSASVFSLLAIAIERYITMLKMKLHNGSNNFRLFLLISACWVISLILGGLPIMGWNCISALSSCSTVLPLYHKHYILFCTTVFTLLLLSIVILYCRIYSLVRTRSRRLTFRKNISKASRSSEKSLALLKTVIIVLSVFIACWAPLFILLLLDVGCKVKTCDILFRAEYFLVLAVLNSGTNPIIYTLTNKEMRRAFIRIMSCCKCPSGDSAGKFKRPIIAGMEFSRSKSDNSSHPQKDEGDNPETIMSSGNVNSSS

Compound | inhibition at 10 µM [1] | inhibition at 10 µM [2]
CCn1c(SC2CCCC2)nnc1[C@@H](C)NS(=O)(=O)c1ccc(Cl)cc1 [Compound 9] | 90.1% | 86.7%
CCn1c(SCC2CC2)nnc1[C@@H](C)NS(=O)(=O)c1ccc(Cl)cc1 [Compound 10] | 85.6% | 54.3%
CCn1c(SCc2ccc(F)cc2)nnc1[C@@H](C)NS(=O)(=O)c1ccc(Cl)cc1 [Compound 11] | 85.5% | 45.1%
CCn1c(SCC2(c3ccc(Cl)cc3)CC2)nnc1[C@@H](C)NS(=O)(=O)c1ccc(Cl)cc1 [Compound 12] | 87.8% | 85.9%
CCn1c(SCC2CCOC2)nnc1[C@@H](C)NS(=O)(=O)c1ccc(Cl)cc1 (stereo partly drawn) [Compound 13] | 80.8% | 43.6%
C=CCCSc1nnc([C@@H](C)NS(=O)(=O)c2ccc(Cl)cc2)n1CC [Compound 14] | 87% | 69.6%
CCn1c(SCCCC(F)(F)F)nnc1[C@@H](C)NS(=O)(=O)c1ccc(Cl)cc1 [Compound 15] | 91% | 79.4%
CCn1c(SCCOC)nnc1[C@@H](C)NS(=O)(=O)c1ccc(Cl)cc1 [Compound 16] | 92.1% | 64.4%
CCC#CCSc1nnc([C@@H](C)NS(=O)(=O)c2ccc(Cl)cc2)n1CC [Compound 17] | 85.5% | 90.6%
CCn1c(SCCCC#Cc2ccccc2)nnc1[C@@H](C)NS(=O)(=O)c1ccc(Cl)cc1 [Compound 18] | 84.8% | 100%
CCn1c(SCCc2ccc(Cl)cc2)nnc1[C@@H](C)NS(=O)(=O)c1ccc(Cl)cc1 [Compound 19] | 82.5% | 100%
CCCC(CCC)Sc1nnc([C@@H](C)NS(=O)(=O)c2ccc(Cl)cc2)n1CC [Compound 20] | 84.3% | 74.3%
C/C=C/CSc1nnc([C@@H](C)NS(=O)(=O)c2ccc(Cl)cc2)n1CC [Compound 21] | 82.2% | 74.8%
CCn1c(SCc2cccc(C)c2)nnc1[C@@H](C)NS(=O)(=O)c1ccc(Cl)cc1 [Compound 22] | 82.1% | 96.9%
CCn1c(SCCOc2ccccc2)nnc1[C@@H](C)NS(=O)(=O)c1ccc(Cl)cc1 [Compound 23] | 84.4% | 95%
CCn1c(SCC(=O)OC)nnc1[C@@H](C)NS(=O)(=O)c1ccc(Cl)cc1 [Compound 24] | 82.6% | 60.6%
CCn1c(SCC2CCCCC2)nnc1[C@@H](C)NS(=O)(=O)c1ccc(Cl)cc1 [Compound 25] | 81.5% | 77.8%
CCn1c(SCCSC)nnc1[C@@H](C)NS(=O)(=O)c1ccc(Cl)cc1 [Compound 26] | 84% | 61.1%
CC#CCSc1nnc([C@@H](C)NS(=O)(=O)c2ccc(Cl)cc2)n1CC [Compound 27] | 86.9% | 76%
CCn1c(SCC=C(C)C)nnc1[C@@H](C)NS(=O)(=O)c1ccc(Cl)cc1 [Compound 28] | 93.1% | 82.8%
CCCCSc1nnc([C@@H](C)NS(=O)(=O)c2ccc(Cl)cc2)n1CC [Compound 29] | 93% | 95.9%
CCCCCCCCSc1nnc([C@@H](C)NS(=O)(=O)c2ccc(Cl)cc2)n1CC [Compound 30] | 91.9% | 100%
CCn1c(SCC2CCO2)nnc1[C@@H](C)NS(=O)(=O)c1ccc(Cl)cc1 (stereo partly drawn) [Compound 31] | 90.2% | 90%
CCn1c(SCc2ccccc2C)nnc1[C@@H](C)NS(=O)(=O)c1ccc(Cl)cc1 [Compound 32] | 89.1% | 99.1%
CCn1c(SCC(C)C)nnc1[C@@H](C)NS(=O)(=O)c1ccc(Cl)cc1 [Compound 33] | 91.7% | 90%
CCn1c(SCC2CCC2)nnc1[C@@H](C)NS(=O)(=O)c1ccc(Cl)cc1 [Compound 34] | 91.5% | 76.4%

Compound | inhibition at 10 µM [1] | inhibition at 10 µM [2]
CCn1c(SCC2CCCCCCC2)nnc1[C@@H](C)NS(=O)(=O)c1ccc(Cl)cc1 [Compound 35] | 91.9% | 87.7%
CCn1c(SC2CCc3ccccc3C2)nnc1[C@@H](C)NS(=O)(=O)c1ccc(Cl)cc1 (stereo partly drawn) [Compound 36] | 89.5% | 104%
CCn1c(SCCOCc2ccccc2)nnc1[C@@H](C)NS(=O)(=O)c1ccc(Cl)cc1 [Compound 37] | 92.7% | 92.8%
CCn1c(SC/C=C/c2ccccc2)nnc1[C@@H](C)NS(=O)(=O)c1ccc(Cl)cc1 [Compound 38] | 91.5% | 81%
CCn1c(SCCCc2ccccc2)nnc1[C@@H](C)NS(=O)(=O)c1ccc(Cl)cc1 [Compound 39] | 93.8% | 86.7%
CCn1c(SC(c2ccccc2)c2ccccc2)nnc1[C@@H](C)NS(=O)(=O)c1ccc(Cl)cc1 [Compound 40] | 87% | 46.1%
CCn1c(SC(C)c2ccccc2)nnc1[C@@H](C)NS(=O)(=O)c1ccc(Cl)cc1 (stereo partly drawn) [Compound 41] | 87.3% | 97.3%
CCn1c(SCc2ccccc2Cl)nnc1[C@@H](C)NS(=O)(=O)c1ccc(Cl)cc1 [Compound 42] | 85.4% | 98.8%
CCn1c(SCc2c(Cl)cccc2Cl)nnc1[C@@H](C)NS(=O)(=O)c1ccc(Cl)cc1 [Compound 43] | 90.5% | 102%
CCn1c(SCc2cccc(Cl)c2)nnc1[C@@H](C)NS(=O)(=O)c1ccc(Cl)cc1 [Compound 44] | 93% | 99.6%
CCn1c(SCc2ccc(Cl)cc2)nnc1[C@@H](C)NS(=O)(=O)c1ccc(Cl)cc1 [Compound 45] | 91.7% | 91.3%
CCn1c(SCc2ccc(C(F)(F)F)cc2)nnc1C(C)NS(=O)(=O)c1ccc(Cl)cc1 (stereo not drawn) [Compound 46] | 90.4% | 99.5%
CCn1c(SCC(=O)c2ccccc2)nnc1[C@@H](C)NS(=O)(=O)c1ccc(Cl)cc1 [Compound 47] | 92.5% | 99.2%
CCn1c(SCc2cccc3ccccc23)nnc1[C@@H](C)NS(=O)(=O)c1ccc(Cl)cc1 [Compound 48] | 93% | 101%
CCn1c(SC2CCOC2)nnc1[C@@H](C)NS(=O)(=O)c1ccc(Cl)cc1 (stereo partly drawn) [Compound 49] | 94.8% | 93.9%
CCn1c(SC/C=C\COCc2ccccc2)nnc1[C@@H](C)NS(=O)(=O)c1ccc(Cl)cc1 [Compound 50] | 95.3% | 96.2%
CCn1c(SC2CCc3ccccc32)nnc1[C@@H](C)NS(=O)(=O)c1ccc(Cl)cc1 (stereo partly drawn) [Compound 51] | 91.2% | 93%
CCn1c(SC(C(=O)OC)c2ccccc2)nnc1[C@@H](C)NS(=O)(=O)c1ccc(Cl)cc1 (stereo partly drawn) [Compound 52] | 93.6% | 89.1%
CCSc1nnc([C@@H](C)NS(=O)(=O)c2ccc(Cl)cc2)n1CC [Compound 53] | 90.8% | 89.3%
CCn1c(SC(C)C)nnc1[C@@H](C)NS(=O)(=O)c1ccc(Cl)cc1 [Compound 54] | 88.7% | 105%
CCn1c(SC2CCC2)nnc1[C@@H](C)NS(=O)(=O)c1ccc(Cl)cc1 [Compound 55] | 94.3% | 104%
CCn1c(SCc2ccc(C#N)cc2)nnc1[C@@H](C)NS(=O)(=O)c1ccc(Cl)cc1 [Compound 56] | 87.1% | 91%
CCn1c(SCC(F)F)nnc1[C@@H](C)NS(=O)(=O)c1ccc(Cl)cc1 [Compound 57] | 92.6% | 100%
CCn1c(SCc2ccc(C(=O)OC)cc2)nnc1[C@@H](C)NS(=O)(=O)c1ccc(Cl)cc1 [Compound 58] | 91.9% | 98.1%
CCn1c(SCc2ccc(C)cc2)nnc1[C@@H](C)NS(=O)(=O)c1ccc(Cl)cc1 [Compound 59] | 93.2% | 96.9%
